# From PMC11233931, “Remodeling tumor‐associated macrophage for anti‐cancer effects by rational design of irreversible inhibition of mitogen‐activated protein kinase‐activated protein kinase 2” (MedComm, 2024)
# How the values were obtained:
# Experiment in all cases: Eurofins kinase selectivity profile against 380 other human recombinant kinases (Table S2)
# Type in all cases: biochemical
# [1] = biological target: T1, 380 human recombinant protein kinases (Homo sapiens, UniProt O60331); conditions: PIP5K1γ(h), read-out: Inhibition rate (%)
# T1 construct: purchased Eurofins (Celle Lévescault)
# T1 sequence (O60331 whole entry): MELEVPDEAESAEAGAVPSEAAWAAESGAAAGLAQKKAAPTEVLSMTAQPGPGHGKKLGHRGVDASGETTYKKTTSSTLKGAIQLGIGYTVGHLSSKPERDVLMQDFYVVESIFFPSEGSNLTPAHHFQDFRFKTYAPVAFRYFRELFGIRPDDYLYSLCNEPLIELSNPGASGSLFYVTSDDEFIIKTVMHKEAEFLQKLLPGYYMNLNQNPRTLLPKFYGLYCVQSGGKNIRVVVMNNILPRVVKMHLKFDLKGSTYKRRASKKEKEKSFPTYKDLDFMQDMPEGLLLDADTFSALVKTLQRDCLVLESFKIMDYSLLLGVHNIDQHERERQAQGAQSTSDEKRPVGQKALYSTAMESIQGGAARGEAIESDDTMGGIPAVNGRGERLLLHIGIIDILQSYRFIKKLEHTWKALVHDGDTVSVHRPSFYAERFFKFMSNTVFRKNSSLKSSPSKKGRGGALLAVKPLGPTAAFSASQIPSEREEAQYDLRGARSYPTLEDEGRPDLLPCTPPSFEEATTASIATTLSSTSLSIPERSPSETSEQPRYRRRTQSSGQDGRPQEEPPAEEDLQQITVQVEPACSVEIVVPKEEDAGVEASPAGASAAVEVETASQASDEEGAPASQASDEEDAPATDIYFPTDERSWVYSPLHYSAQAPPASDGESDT
# Procedure, shortened: (§1)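 Profiling against 380 human recombinant kinases carried out by Eurofins at various compound concentrations.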
# [2] = biological target: T2, 380 human recombinant protein kinases (Homo sapiens, UniProt Q13627); conditions: DYRK1A(h), read-out: Inhibition rate
# T2 construct: purchased Eurofins (Celle Lévescault)
# Procedure, shortened: as §1
# [3] = biological target: T3, 380 human recombinant protein kinases (Homo sapiens, UniProt P08631); conditions: Hck(h), read-out: Inhibition rate
# T3 construct: purchased Eurofins (Celle Lévescault)
# T3 sequence (P08631 whole entry): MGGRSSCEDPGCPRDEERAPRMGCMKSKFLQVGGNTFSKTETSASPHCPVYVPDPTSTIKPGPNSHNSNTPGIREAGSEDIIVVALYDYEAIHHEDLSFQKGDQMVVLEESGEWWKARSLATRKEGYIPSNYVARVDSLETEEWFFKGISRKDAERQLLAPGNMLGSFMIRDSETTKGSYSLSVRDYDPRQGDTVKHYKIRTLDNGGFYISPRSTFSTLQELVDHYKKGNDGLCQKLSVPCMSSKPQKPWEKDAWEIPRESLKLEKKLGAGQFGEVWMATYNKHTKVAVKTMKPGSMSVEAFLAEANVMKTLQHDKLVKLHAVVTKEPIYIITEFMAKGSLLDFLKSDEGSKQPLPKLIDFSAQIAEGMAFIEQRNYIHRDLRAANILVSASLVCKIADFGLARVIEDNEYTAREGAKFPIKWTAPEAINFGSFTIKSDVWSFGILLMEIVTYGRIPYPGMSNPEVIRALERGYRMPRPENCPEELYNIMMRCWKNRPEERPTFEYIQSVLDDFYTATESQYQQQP
# Procedure, shortened: as §1
# [4] = biological target: T4, 380 human recombinant protein kinases (Homo sapiens, UniProt P52333); conditions: JAK3(h), read-out: Inhibition rate
# T4 construct: purchased Eurofins (Celle Lévescault)
# T4 sequence (P52333 1-1124): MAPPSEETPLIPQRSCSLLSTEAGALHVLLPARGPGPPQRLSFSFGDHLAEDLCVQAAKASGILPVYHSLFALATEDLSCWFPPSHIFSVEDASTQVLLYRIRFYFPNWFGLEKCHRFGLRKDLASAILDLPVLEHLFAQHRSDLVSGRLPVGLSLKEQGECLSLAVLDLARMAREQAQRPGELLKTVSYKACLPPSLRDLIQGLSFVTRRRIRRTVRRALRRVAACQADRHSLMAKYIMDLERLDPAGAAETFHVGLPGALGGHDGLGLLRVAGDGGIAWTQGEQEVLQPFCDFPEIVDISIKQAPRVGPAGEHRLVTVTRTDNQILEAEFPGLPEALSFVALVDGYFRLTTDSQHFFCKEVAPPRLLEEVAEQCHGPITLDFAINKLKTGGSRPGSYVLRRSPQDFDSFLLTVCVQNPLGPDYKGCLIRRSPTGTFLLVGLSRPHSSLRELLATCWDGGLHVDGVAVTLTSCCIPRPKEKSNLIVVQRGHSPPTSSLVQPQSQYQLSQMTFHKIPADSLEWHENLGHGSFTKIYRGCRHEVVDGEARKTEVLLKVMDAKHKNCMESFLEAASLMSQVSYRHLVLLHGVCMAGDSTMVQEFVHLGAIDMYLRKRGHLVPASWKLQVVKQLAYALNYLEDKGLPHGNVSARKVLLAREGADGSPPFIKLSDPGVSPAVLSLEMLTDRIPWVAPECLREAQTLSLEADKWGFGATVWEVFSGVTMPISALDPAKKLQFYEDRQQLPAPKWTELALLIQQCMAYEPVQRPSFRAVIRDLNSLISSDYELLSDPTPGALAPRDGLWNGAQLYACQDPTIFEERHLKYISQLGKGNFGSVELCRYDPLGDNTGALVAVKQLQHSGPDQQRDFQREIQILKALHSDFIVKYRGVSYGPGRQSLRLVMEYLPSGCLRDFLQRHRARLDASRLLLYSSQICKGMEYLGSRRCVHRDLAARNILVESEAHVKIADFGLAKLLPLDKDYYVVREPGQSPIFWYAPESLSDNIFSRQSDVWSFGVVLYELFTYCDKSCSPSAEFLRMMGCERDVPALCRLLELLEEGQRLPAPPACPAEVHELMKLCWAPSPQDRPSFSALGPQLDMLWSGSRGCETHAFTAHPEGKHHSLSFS
# Procedure, shortened: as §1
# [5] = biological target: T5, 380 human recombinant protein kinases (Homo sapiens, UniProt Q9Y2H1); conditions: NDR2(h), read-out: Inhibition rate
# T5 construct: purchased Eurofins (Celle Lévescault)
# T5 sequence (Q9Y2H1 whole entry): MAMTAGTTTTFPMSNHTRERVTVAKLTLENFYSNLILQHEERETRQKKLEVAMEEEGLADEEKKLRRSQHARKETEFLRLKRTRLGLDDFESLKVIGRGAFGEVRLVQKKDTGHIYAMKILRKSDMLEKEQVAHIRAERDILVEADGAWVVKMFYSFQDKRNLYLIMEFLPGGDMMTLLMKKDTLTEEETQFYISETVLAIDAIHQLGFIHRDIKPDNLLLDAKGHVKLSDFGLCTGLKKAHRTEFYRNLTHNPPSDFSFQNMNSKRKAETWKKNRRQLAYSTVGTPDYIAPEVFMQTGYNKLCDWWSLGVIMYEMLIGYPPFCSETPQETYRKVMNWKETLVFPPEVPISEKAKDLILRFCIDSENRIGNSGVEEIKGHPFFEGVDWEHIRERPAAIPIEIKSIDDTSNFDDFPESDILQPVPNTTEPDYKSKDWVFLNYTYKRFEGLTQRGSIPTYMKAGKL
# Procedure, shortened: as §1
# [6] = biological target: T6, 380 human recombinant protein kinases (Homo sapiens, UniProt Q99755); conditions: PIP5K1α(h), read-out: Inhibition rate (%)
# T6 construct: purchased Eurofins (Celle Lévescault)
# T6 sequence (Q99755 whole entry): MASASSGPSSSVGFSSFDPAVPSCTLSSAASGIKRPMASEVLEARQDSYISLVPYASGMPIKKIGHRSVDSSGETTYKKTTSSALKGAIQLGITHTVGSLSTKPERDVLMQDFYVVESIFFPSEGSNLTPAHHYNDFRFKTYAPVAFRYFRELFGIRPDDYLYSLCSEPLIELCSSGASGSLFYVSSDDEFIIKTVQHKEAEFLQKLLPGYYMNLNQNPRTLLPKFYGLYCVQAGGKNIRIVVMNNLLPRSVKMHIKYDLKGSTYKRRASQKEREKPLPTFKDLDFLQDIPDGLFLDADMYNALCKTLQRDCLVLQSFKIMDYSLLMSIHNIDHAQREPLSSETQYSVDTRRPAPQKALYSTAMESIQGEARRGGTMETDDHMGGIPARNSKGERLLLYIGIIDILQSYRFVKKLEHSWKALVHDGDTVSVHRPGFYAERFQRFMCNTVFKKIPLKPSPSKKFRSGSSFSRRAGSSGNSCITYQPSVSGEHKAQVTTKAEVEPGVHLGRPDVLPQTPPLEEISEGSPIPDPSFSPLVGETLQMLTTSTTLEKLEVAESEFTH
# Procedure, shortened: as §1
# [7] = biological target: T7, 380 human recombinant protein kinases (Homo sapiens, UniProt P17948); conditions: Flt1(h), read-out: Inhibition rate
# T7 construct: purchased Eurofins (Celle Lévescault)
# T7 sequence (P17948 27-1338): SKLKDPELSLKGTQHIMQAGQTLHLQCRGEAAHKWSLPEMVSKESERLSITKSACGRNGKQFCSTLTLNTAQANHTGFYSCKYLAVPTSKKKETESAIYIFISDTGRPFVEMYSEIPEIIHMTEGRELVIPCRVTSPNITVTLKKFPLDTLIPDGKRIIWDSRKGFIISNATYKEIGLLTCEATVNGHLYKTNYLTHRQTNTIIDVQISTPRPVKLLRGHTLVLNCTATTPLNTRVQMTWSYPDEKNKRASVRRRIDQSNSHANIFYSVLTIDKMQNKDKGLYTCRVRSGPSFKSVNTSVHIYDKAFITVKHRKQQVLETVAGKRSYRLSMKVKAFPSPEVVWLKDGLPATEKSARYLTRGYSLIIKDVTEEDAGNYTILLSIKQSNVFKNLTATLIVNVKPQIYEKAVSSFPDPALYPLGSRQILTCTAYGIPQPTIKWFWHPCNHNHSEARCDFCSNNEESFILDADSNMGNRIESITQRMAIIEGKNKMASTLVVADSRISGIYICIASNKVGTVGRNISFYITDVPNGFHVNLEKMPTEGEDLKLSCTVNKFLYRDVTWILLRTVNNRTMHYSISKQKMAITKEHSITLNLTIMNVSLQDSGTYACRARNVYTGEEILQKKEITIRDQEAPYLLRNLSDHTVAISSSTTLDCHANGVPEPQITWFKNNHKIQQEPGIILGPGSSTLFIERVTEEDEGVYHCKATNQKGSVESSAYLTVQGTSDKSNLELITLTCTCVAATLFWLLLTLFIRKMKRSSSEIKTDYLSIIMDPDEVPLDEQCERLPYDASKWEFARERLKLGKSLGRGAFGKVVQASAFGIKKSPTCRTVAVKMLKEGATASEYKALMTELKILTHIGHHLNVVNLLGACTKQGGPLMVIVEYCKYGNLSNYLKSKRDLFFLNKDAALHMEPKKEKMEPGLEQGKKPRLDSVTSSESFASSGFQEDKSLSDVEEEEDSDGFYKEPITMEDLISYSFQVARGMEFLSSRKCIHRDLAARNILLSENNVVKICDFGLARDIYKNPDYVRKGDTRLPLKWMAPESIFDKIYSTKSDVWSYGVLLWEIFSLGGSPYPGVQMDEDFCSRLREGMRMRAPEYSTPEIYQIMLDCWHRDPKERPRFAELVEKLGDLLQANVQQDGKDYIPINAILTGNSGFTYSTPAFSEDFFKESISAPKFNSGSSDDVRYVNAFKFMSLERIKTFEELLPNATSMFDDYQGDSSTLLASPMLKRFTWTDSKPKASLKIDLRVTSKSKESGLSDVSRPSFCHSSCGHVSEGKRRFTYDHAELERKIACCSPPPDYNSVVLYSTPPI
# Procedure, shortened: as §1
# [8] = biological target: T8, 380 human recombinant protein kinases (Homo sapiens, UniProt Q96L34); conditions: MARK4(h), read-out: Inhibition rate
# T8 construct: purchased Eurofins (Celle Lévescault)
# T8 sequence (Q96L34 1-752): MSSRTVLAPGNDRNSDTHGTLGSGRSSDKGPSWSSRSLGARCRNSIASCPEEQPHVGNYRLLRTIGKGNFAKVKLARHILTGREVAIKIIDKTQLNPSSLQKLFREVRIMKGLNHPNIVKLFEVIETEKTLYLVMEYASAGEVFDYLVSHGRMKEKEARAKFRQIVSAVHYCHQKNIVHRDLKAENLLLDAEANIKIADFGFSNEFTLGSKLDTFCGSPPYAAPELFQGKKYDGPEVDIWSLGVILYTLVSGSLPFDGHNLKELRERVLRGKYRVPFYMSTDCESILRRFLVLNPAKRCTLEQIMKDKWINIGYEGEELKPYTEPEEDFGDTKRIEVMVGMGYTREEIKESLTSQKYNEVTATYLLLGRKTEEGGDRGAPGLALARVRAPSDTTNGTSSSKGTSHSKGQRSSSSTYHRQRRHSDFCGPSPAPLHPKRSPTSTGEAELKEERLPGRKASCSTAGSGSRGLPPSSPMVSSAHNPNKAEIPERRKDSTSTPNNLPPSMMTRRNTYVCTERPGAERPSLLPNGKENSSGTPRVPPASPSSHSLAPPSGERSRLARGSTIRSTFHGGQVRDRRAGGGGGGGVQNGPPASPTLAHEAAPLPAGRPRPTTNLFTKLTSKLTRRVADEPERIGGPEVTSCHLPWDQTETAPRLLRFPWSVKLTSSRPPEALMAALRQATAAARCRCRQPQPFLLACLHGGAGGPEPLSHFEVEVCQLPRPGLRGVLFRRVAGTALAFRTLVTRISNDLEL
# Procedure, shortened: as §1
structure (smiles),measurement,setting,value
C=CC(=O)Nc1cc(-c2cc(-c3cc4c([nH]3)CCNC4=O)ccn2)ccc1OC(F)(F)F [compound 11],inhibition at 0.01 µM,[1]; 10 nM,0%
same,inhibition at 0.1 µM,[1]; 100 nM,-1%
same,inhibition at 1 µM,[1]; 1000 nM,3%
same,inhibition at 0.01 µM,[2]; 10 nM,20%
same,inhibition at 0.1 µM,[2]; 100 nM,76%
same,inhibition at 1 µM,[2]; 1000 nM,96%
same,inhibition at 0.01 µM,[3]; 10 nM,-3%
same,inhibition at 0.1 µM,[3]; 100 nM,-7%
same,inhibition at 1 µM,[3]; 1000 nM,4%
same,inhibition at 0.01 µM,[4]; 10 nM,8%
same,inhibition at 0.1 µM,[4]; 100 nM,5%
same,inhibition at 1 µM,[4]; 1000 nM,12%
same,inhibition at 0.01 µM,[5]; 10 nM,-5%
same,inhibition at 0.1 µM,[5]; 100 nM,-10%
same,inhibition at 1 µM,[5]; 1000 nM,-2%
same,inhibition at 0.01 µM,[6]; 10 nM,-4%
same,inhibition at 0.1 µM,[6]; 100 nM,-3%
same,inhibition at 1 µM,[6]; 1000 nM,-2%
same,inhibition at 0.01 µM,[7]; 10 nM,-24%
same,inhibition at 0.1 µM,[7]; 100 nM,-17%
same,inhibition at 1 µM,[7]; 1000 nM,-11%
same,inhibition at 0.01 µM,[8]; 10 nM,-10%
same,inhibition at 0.1 µM,[8]; 100 nM,-2%
same,inhibition at 1 µM,[8]; 1000 nM,-4%
